Active and inactive are the calls of the source. The rule behind the calls is not given here.
How the values were obtained:
Rho GTPase Rac1/CDC42 = Rho GTPase Rac1/CDC42 (Homo sapiens, UniProt P60953+P63000); test: Inhibition of RAC1/CDC42 in human ovarian cancer cells; type: cell-based
[1] = Drug-uptake in multidrug-resistant mouse EMT6 cells at 100 uM measured after 6 hrs by HPLC method; type: ADME, cell-based; conditions: emt6, 6 h
[2] = Inhibition of PAK1/COX2 in human A549 cells harboring Ki-RAS mutant assessed as cell growth inhibition measured after 72 hrs by trypan blue assay; type: cell-based; conditions: A549, 72 h
[3] = Drug metabolism in human A549 cells assessed as mitochondrial reductase mediated azo dye formation by colorimetric method; type: ADME, cell-based
LIM1899 = test: Cytotoxicity against human LIM1899 cells up to 100 uM measured after 24 hrs by trypan blue assay; type: functional, cell-based
[4] = biological target: Serine/threonine-protein kinase PAK 1 (Homo sapiens, UniProt Q13153); test: Inhibition of PAK1 in human A549 cells using myelin basic protein as substrate preincubated for 24 hrs followed by PAK1 immunoprecipation and substrate addition measured after 60 mins by ATP-Glo kinase assay
Sequence of Serine/threonine-protein kinase PAK 1 (Q13153 whole entry): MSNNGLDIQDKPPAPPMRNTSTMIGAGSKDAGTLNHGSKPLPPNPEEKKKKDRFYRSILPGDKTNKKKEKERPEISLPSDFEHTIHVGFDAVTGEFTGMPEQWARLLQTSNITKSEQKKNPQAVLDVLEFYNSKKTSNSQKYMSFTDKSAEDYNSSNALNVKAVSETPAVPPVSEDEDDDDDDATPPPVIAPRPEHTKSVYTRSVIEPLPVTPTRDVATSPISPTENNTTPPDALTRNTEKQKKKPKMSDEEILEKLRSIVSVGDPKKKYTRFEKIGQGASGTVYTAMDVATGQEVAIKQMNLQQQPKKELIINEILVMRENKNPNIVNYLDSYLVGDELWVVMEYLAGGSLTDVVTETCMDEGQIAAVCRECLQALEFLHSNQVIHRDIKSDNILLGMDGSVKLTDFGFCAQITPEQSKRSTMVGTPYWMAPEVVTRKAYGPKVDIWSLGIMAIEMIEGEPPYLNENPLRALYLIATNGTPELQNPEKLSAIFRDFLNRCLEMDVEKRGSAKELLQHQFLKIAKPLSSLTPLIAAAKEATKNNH

EMT6 = test: Cytotoxicity against multidrug-resistant mouse EMT6 cells at 100 uM measured after 24 hrs by MTT assay; type: functional, cell-based
[5] = Drug-uptake in multidrug-resistant mouse EMT6 cells at 100 uM measured after 1 hr by HPLC method; type: ADME, cell-based; conditions: emt6, 1 h
[6] = Inhibition of PAK1/COX2 in human A549 cells harboring Ki-RAS mutant assessed as cell growth inhibition measured after 72 hrs by MTT assay; type: cell-based; conditions: A549, 72 h
[7] = biological target: T1, Prostaglandin G/H synthase 2 (Homo sapiens, UniProt P35354); test: Inhibition of recombinant human COX2 using arachidonic acid as substrate measured after 2 to 5 mins
T1 sequence (P35354 whole entry): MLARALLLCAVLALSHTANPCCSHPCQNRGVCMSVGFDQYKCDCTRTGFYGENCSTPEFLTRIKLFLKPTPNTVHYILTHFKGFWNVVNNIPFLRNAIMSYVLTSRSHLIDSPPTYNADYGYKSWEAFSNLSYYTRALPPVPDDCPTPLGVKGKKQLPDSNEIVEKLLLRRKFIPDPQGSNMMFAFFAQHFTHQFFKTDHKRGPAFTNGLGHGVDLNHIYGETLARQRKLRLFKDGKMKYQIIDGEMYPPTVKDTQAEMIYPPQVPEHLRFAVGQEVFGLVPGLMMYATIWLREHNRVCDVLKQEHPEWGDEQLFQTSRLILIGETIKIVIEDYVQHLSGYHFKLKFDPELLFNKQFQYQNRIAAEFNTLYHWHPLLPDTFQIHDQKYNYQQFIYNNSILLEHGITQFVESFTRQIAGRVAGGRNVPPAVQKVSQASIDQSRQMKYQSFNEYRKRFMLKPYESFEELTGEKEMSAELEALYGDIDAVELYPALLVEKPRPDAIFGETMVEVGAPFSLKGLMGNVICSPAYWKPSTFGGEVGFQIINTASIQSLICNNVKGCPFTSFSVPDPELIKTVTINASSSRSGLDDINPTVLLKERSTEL

B16-F10 = test: Cytotoxicity against PAK1-independent mouse B16F10 cells assessed as cell growth inhibition measured after 72 hrs by MTT assay; type: functional, cell-based; conditions: B16-F10, 72 h

Drug uptake [1]	Drug metabolism [3]	SMILES	IC50 (Rho GTPase Rac1/CDC42)	IC50 [2]	Activity (LIM1899)	IC50 [4]	Activity (EMT6)	Drug uptake [5]	IC50 [6]	IC50 [7]	IC50 (B16-F10)
–	–	O=C(c1ccccc1)c1ccc2n1CC[C@H]2C(=O)O	1000 nM	–	–	–	–	–	–	–	–
Not Active	Metabolite_Detected	COc1ccccc1-n1cc(COC(=O)C2CCn3c(C(=O)c4ccccc4)ccc32)nn1 (stereo not given)	–	24 nM	inactive	65 nM	inactive	3.75 nmol	–	–	–
–	–	O=C(c1ccccc1)c1ccc2n1CCC2C(=O)O (stereo not given) [KETOROLAC]	2000 nM	–	–	36000 nM	inactive	0.37 nmol	13000 nM	140 nM	30000 nM
